Consider two compounds from patent US6767906B2, “2-amino-6-anilino-purines and their use as medicaments” (Novartis AG, priority 1999, dated 2004).

One may read the melting point as the temperature of the solid-liquid transition. Compound `CCn1cnc2c(Nc3cccc(NC(=O)C#Cc4cccc(C)n4)c3)nc(NC3CCC(O)CC3)nc21` (centres unmarked) [Example 105, 3-(6-Methyl-pyridin-2-yl)-propynoic acid {3-[9-ethyl-2-(4-hydroxy-cyclohexylamino)-9H-purin-6-ylamino]-phenyl}-amide] displayed a melting point of 149 to 156 °C.

`CCn1cnc2c(Nc3cccc(C(=O)NCc4ccc(C)cc4)c3)nc(N[C@H]3CC[C@H](O)CC3)nc21` [Example 74, 3-[9-ethyl-2-(trans-4-hydroxy-cyclohexylamino)-9H-purin-6-yl-amino]-N-(4-methyl-benzyl)-benzamide] gave a melting point of 130 to 134 °C.
